The values below come from ChEMBL document CHEMBL4602656, “Synthesis and evaluation of 4-(1,3,4-oxadiazol-2-yl)-benzenesulfonamides as potent carbonic anhydrase inhibitors” (Bioorg Med Chem Lett, 2020).

The structures appear in SMILES notation. The source made the active and inactive calls. No cut-off for these calls is given here.

One data set has as its system HEK-293T. In words: Cytotoxicity against human HEK293T cells assessed as reduction in cell viability at 5 to 200 uM incubated for 48 hrs by MTS assay. In kind it is cell-based.
Another data set relates to Mus musculus. In words: Anti-hypoxia in mouse assessed as increase in mouse survival at 400 mg/kg, po administered for 3 days and observed upto day 3 after dosing of 1.5 hrs. In kind it is functional, organism-based.
A short description of data set [1]: Solubility of compound. It counts as physicochemical.

As to `CN(C)c1ccc(-c2nnc(-c3ccc(S(N)(=O)=O)cc3)o2)cc1.CS(=O)(=O)O`, the Activity entry in the data set with HEK-293T is on record as “Non-Toxic”. In addition, in the data set with Mus musculus, the outcome was Active.

`CC(=O)Nc1nnc(S(N)(=O)=O)s1` [ACETAZOLAMIDE]: in the data set on HEK-293T, the Activity result is “Non-Toxic”. Also, the outcome in the data set on Mus musculus was Active.

Regarding `Cc1ccc(-c2nnc(-c3ccc(S(N)(=O)=O)cc3)o2)c(C)c1`, the Activity result with HEK-293T was “Non-Toxic”. In addition, in data set [1], the solubility entry is given as “Insoluble”.

As for `NS(=O)(=O)c1ccc(-c2nnc(-c3cccc(Cl)c3Cl)o2)cc1`, the Activity entry in the data set on HEK-293T was “Non-Toxic”. Also, in data set [1], the solubility entry is listed as “Insoluble”.
